Test results published in US20220378923A1, “BET DEGRADER” (KYOWA KIRIN CO., LTD., priority 2019, published 2022).

Key:
[1] = test system: SU-DHL-4 subcutaneously transplanted tumor; experiment: Antitumor effect on subcutaneous transplant model in SCID mouse, DLBCL strain SU-DHL-4, compound 1b (Test Example 9); format: in vivo; details: for Tumor Volume (mm^3): compound 1b 10 mg/kg i.v. (tail vein) once on the test start day; for Tumor Volume (mm^3) / Body Weight: male SCID mouse; for Tumor Volume (mm^3) / Body Weight / V/V0 (tumor growth rate): mean of n=5; for T/C: V/V0 of group divided by vehicle group
Experimental: 1×10^7 cells of DLBCL strain SU-DHL-4 (Code No. ACC 495, Deutsche Sammlung von Mikroorganismen and Zellkulturen GmbH) suspended in a 1:1 mixed solution of PBS and matrigel (CORNING Code No. 354234) were transplanted subcutaneously on the ventral side of male SCID mouse. 14 days after the transplantation, the body weight and tumor diameter were measured, the tumor volume was calculated by the following formula, and the mice were divided into two groups (n=5) so that the average tumor volume of each group was equal. E-workbook software (ID Business Solutions) was used for grouping and measurement.
(§1) [Tumor volume (mm^3)]=[Tumor long diameter (mm)]×[Tumor short diameter (mm)]^2×0.5
To the compound 1b administration group, a solution of compound 1b dissolved in 30% DMSO/3% Tween 80/physiological saline so as to give a final concentration of 2 mg/mL was administered intravenously (tail vein) at 5 mL/kg (10 mg/kg) once on the test start day. To the vehicle administration group, 30% DMSO/3% Tween 80/physiological saline was administered intravenously (tail vein) at 5 mL/kg in the same schedule as in the compound 1b administration group. After the start of the test, body weight and tumor diameter were measured twice a week. The tumor volume on each measurement day was calculated by the above formula. The tumor growth rate (hereinafter referred to as V/VO) was calculated by dividing the tumor volume V on each measurement day by the tumor volume VO on the test start date (Day 0). The T/C was calculated by dividing the average value (T) of V/VO of each group by the average value (C) of the vehicle administration group.

[2] = test system: SU-DHL-4 subcutaneously transplanted tumor; experiment: Antitumor effect on subcutaneous transplant model in SCID mouse, DLBCL strain SU-DHL-4, compound 1a (Test Example 3); format: in vivo; details: for T/C: V/V0 of group divided by vehicle group; for Body Weight / Tumor Volume (mm^3): male SCID mouse; for Body Weight / V/V0 (tumor growth rate) / Tumor Volume (mm^3): mean of n=5; for Tumor Volume (mm^3): compound 1a 3 mg/kg i.v. (tail vein) 5 times a week for 2 weeks
Experimental: cells of DLBCL strain SU-DHL-4 (Code No. ACC 495, Deutsche Sammlung von Mikroorganismen and Zellkulturen GmbH) suspended in a 1:1 mixed solution of PBS and matrigel (CORNING Code No. 354234) were transplanted subcutaneously to the ventral side of a male SCID mouse. Eighteen days after the transplantation, the body weight and the tumor diameter were measured, the tumor volume was calculated by the following formula, and the mice were divided into two groups (n=5) so that the average tumor volume of each group was equal.
as §1
The test was conducted in two groups, a vehicle administration group and a compound 1a administration group (compound administration group). To the compound 1a administration group, a solution of compound 1a dissolved in 30% DMSO/3% Tween 80/physiological saline so as to give a final concentration of 0.6 mg/mL was administered intravenously (tail vein) at 5 mL/kg (3 mg/kg) 5 times a week for 2 weeks. To the vehicle administration group, 30% DMSO/3% Tween 80/physiological saline was administered intravenously (tail vein) at 5 mL/kg on the same schedule as the compound 1a administration group. After the start of the test, body weight and tumor diameter were measured twice a week. The tumor volume on each measurement day was calculated by the above formula. The tumor growth rate (hereinafter referred to as V/VO) was calculated by dividing the tumor volume V on each measurement day by the tumor volume VO on the test start day (Day 0). The T/C was calculated by dividing the average value (T) of V/VO of each group by the average value (C) of the vehicle administration group.

[3] = Day 0, compound 1b 10 mg/kg i.v. once
[4] = Day 4, compound 1b 10 mg/kg i.v. once
[5] = Day 7, compound 1b 10 mg/kg i.v. once
[6] = Day 10, compound 1b 10 mg/kg i.v. once
[7] = Day 14, compound 1b 10 mg/kg i.v. once
[8] = Day 17, compound 1b 10 mg/kg i.v. once
[9] = compound 1b 10 mg/kg i.v. once, SCID mouse
[10] = Day 0, compound 1a 3 mg/kg i.v. 5 times a week for 2 weeks
[11] = Day 3, compound 1a 3 mg/kg i.v. 5 times a week for 2 weeks
[12] = Day 7, compound 1a 3 mg/kg i.v. 5 times a week for 2 weeks
[13] = Day 10, compound 1a 3 mg/kg i.v. 5 times a week for 2 weeks
[14] = Day 14, compound 1a 3 mg/kg i.v. 5 times a week for 2 weeks
[15] = Day 18, compound 1a 3 mg/kg i.v. 5 times a week for 2 weeks
[16] = compound 1a 3 mg/kg i.v. 5 times a week for 2 weeks, SCID mouse

SMILES: Cc1sc2c(c1C)C(c1ccc(C(=O)NCCCNC(=O)c3ccc(C4=N[C@@H](CC(=O)OC(C)(C)C)c5nnc(C)n5-c5sc(C)c(C)c54)cc3)cc1)=N[C@@H](CC(=O)OC(C)(C)C)c1nnc(C)n1-2 [Compound 1b, Di-tert-butyl 2,2′-[(6S,6′S)-({[propane-1,3-diylbis(azanediyl)]bis(carbonyl)}bis(4,1-phenylene))bis(2,3,9-trimethyl-6H-thieno[3,2-f][1,2,4]triazolo[4,3-a][1,4]diazepine-4,6-diyl)]diacetate]
- Tumor Volume (mm^3) ([1]; Day 0): 208 mm^3
- T/C [1, 3]: 1.00
- Body Weight [1, 3]: 25 g
- V/V0 (tumor growth rate) [1, 3]: 1.00
- Tumor Volume (mm^3) ([1]; Day 4): 101 mm^3
- T/C [1, 4]: 0.31
- Body Weight [1, 4]: 25 g
- V/V0 (tumor growth rate) [1, 4]: 0.49
- Tumor Volume (mm^3) ([1]; Day 7): 49 mm^3
- T/C [1, 5]: 0.12
- Body Weight [1, 5]: 25 g
- V/V0 (tumor growth rate) [1, 5]: 0.24
- Tumor Volume (mm^3) ([1]; Day 10): 66 mm^3
- T/C [1, 6]: 0.11
- Body Weight [1, 6]: 26 g
- V/V0 (tumor growth rate) [1, 6]: 0.32
- Tumor Volume (mm^3) ([1]; Day 14): 87 mm^3
- T/C [1, 7]: 0.12
- Body Weight [1, 7]: 26 g
- V/V0 (tumor growth rate) [1, 7]: 0.42
- Tumor Volume (mm^3) ([1]; Day 17): 122 mm^3
- T/C [1, 8]: 0.13
- Body Weight [1, 8]: 27 g
- V/V0 (tumor growth rate) [1, 8]: 0.59
- antitumor effect on SU-DHL-4 subcutaneously transplanted tumor [1, 9]: potent antitumor effect
- weight loss [1, 9]: no weight loss was observed

SMILES: CCC(=O)N1c2ccccc2[C@H](Nc2ccc(C(=O)NCCCNC(=O)c3ccc(N[C@@H]4C[C@H](C)N(C(=O)CC)c5ccccc54)cc3)cc2)C[C@@H]1C (relative stereo) [Compound 1a, N,N′-(Propane-1,3-diyl)bis(4-{[(2S*,4R*)-2-methyl-1-propionyl-1,2,3,4-tetrahydroquinolin-4-yl]amino}benzamide)]
- T/C [2, 10]: 1.00
- Body Weight [2, 10]: 24.56 g
- V/V0 (tumor growth rate) [2, 10]: 1.00
- Tumor Volume (mm^3) ([2]; Day 0): 246.14 mm^3
- T/C [2, 11]: 0.71
- Body Weight [2, 11]: 25.36 g
- V/V0 (tumor growth rate) [2, 11]: 1.15
- Tumor Volume (mm^3) ([2]; Day 3): 284.29 mm^3
- T/C [2, 12]: 0.48
- Body Weight [2, 12]: 25.44 g
- V/V0 (tumor growth rate) [2, 12]: 1.29
- Tumor Volume (mm^3) ([2]; Day 7): 326.25 mm^3
- T/C [2, 13]: 0.22
- Body Weight [2, 13]: 25.14 g
- V/V0 (tumor growth rate) [2, 13]: 0.85
- Tumor Volume (mm^3) ([2]; Day 10): 214.74 mm^3
- T/C [2, 14]: 0.17
- Body Weight [2, 14]: 25.74 g
- V/V0 (tumor growth rate) [2, 14]: 0.89
- Tumor Volume (mm^3) ([2]; Day 14): 224.55 mm^3
- T/C [2, 15]: 0.16
- Body Weight [2, 15]: 26.23 g
- V/V0 (tumor growth rate) [2, 15]: 1.30
- Tumor Volume (mm^3) ([2]; Day 18): 325.61 mm^3
- antitumor effect on SU-DHL-4 subcutaneously transplanted tumor [2, 16]: potent antitumor effect
- weight loss [2, 16]: no weight loss was observed
